Results from patent US11464825B2, “Adiponectin peptidomimetics for treating ocular disorders” (Allysta Pharmaceuticals, Inc., priority 2015, dated 2022).
Primed or numbered codes have the meaning given here. Where no end group is shown, it is not given here. [ ]: non-standard residue; d: D form. Dab′ = 2,3-diamino butyric acid; Nva = CCC[C@H](N)C(=O)O

How the values were obtained:
[1] = test system: experimental dry eye (EDE) mice; assay: Tear volume by phenol red thread tear test in experimental dry eye (EDE) mice; format: in vivo, C57BL/6 mice; details: 0.01% in BSS, 3 times a day; for tear production, as measured by tear volume, compared to untreated or BSS treated EDE mice: topical bilateral 2 μl/eye, day 5 and day 10 after treatment initiation, p-value <0.05 vs. EDE; for difference in tear volume among those treated with ADP355, ADP399 and globular adiponectin: topical, EDE mice
Method: (§1) Experimental dry eye (EDE) was induced in 8-week old female C57BL/6 mice by subcutaneous injection of 0.5 mg/0.2 mL scopolamine hydrobromide (Sigma-Aldrich, St. Louis, Mo.) three times a day (9 AM, 1:30 PM and 6 PM). A dose of 0.3 mL scopolamine hydrobromide was administered at each injection. The mice were also exposed to an air draft and 30% ambient humidity. 6 experimental groups used in this study included: (1) untreated control mice (UT; no dry eye treatment and no topical treatment); (2) untreated EDE control mice (EDE; received no topical administration); (3) EDE control mice received a balanced salt solution (BSS); (4) EDE mice received 0.01% single chain adiponectin peptidomimetic (ADP355) in BSS; (5) EDE mice receiving 0.01% peptide dimer adiponectin peptidomimetic (ADP399) in BSS; and (6) EDE mice receiving 0.01% recombinant globular adiponectin (gAdipo) in BSS. Each group included 5 mice. EDE mice treated with BSS received topical bilateral administration of […], 3 times a day. EDE mice treated with ADP355 received topical bilateral administration of 2 μl/eye, 3 times a day. EDE mice treated with ADP-399 received topical bilateral administration of 2 μl/eye, 3 times a day. The gAdipo treated mice served as a positive treatment control. Mice were evaluated at baseline, day 5 and day 10 after the treatment initiation. In some experiments, ADP355, ADP-399 and gAdipo were resuspended in 0.01% BSA.
Tear volume was measured using a phenol red thread tear test. Briefly, a cotton thread treated with phenol red at its tip (Zone-Quick; Oasis, Glendora, Calif.) was held with jeweler's forceps and placed in the tear meniscus of the lateral canthus for 20 secs to contact tear fluid. Using a microscope, the length of the red portion (wet portion) of the thread was measured in millimeters. A standard curve was derived to convert the distance measurement into tear volume.

[2] = test system: experimental dry eye (EDE) mice; assay: Corneal fluorescein staining score in experimental dry eye (EDE) mice; format: in vivo, C57BL/6 mice; details: 0.01% in BSS, 3 times a day; for corneal staining (corneal irregularity) compared to untreated EDE mice: topical bilateral 2 μl/eye, score 0-4 averaged over five regions, day 5 and day 10, p-value <0.05 vs. EDE; for corneal surfaces compared to untreated normal mice (UT) and positive control globular adiponectin-treated mice (gAdipo): topical, EDE mice
Method: as §1
The severity of corneal epithelial damage was evaluated by corneal fluorescein staining. Briefly, 1% fluorescein dye (1 μl) was instilled into the eye and then the eye was washed with saline. 10 minutes after application of the dye, the eye was photographed with a slip lamp microscope using a cobalt blue light. The stained area was graded using a scoring system by two blinded observers. […] The average score from the five regions was recorded. […] In addition, the adiponectin peptidomimetic-treated mice (ADP355 and ADP-399) had corneal surfaces that were similar to those of untreated normal mice (UT) and positive control globular adiponectin-treated mice (gAdipo). The corneal surface scores in all groups at day 10 were similar to those at day 5 after treatment initiation.

Substance	tear production, as measured by tear volume, compared to untreated or BSS treated EDE mice [1]	difference in tear volume among those treated with ADP355, ADP399 and globular adiponectin [1]	corneal staining (corneal irregularity) compared to untreated EDE mice [2]	corneal surfaces compared to untreated normal mice (UT) and positive control globular adiponectin-treated mice (gAdipo) [2]
DAsn-Ile-Pro-Nva-Leu-Tyr-DSer-Phe-Ala-DSer-NH2 ([dN]IP[Nva]LY[dS]FA[dS]-NH2; N-terminus assumed; SMILES CCC[C@H](NC(=O)[C@@H]1CCCN1C(=O)[C@@H](NC(=O)[C@H](N)CC(N)=O)[C@@H](C)CC)C(=O)N[C@@H](CC(C)C)C(=O)N[C@@H](Cc1ccc(O)cc1)C(=O)N[C@H](CO)C(=O)N[C@@H](Cc1ccccc1)C(=O)N[C@@H](C)C(=O)N[C@H](CO)C(N)=O) [ADP355, single chain adiponectin peptidomimetic]	higher	no significant difference	less corneal staining	similar
(DAsn-Ile-Pro-Nva-Leu-Tyr-DSer-Phe-Ala-DSer-His-Pro)2-Dab-NH2 ([dN]IP[Nva]LY[dS]FA[dS]HP[Dab′]-NH2; also: branched dimer: two chains joined via Dab) [ADP399, linear branched dimer of ADP355]	higher	no significant difference	less corneal staining	similar
